Experimental data: patent US20230143751A1, “Aromatic Compound And Use Thereof In Preparing Antineoplastic Drugs” (Shanghai Zheye Biotechnology Co. Ltd., priority 2020, published 2023)

Columns and labels:
NCI-H358 cells = assay: Cell proliferation activity of NCI-H358 by CellTiter-Glo reagent; assay type: cell-based; conditions: Homo sapiens, NCI-H358; test 8, method of test 3; read-out: IC50 of proliferation inhibitory activity of the compound on NCI-H358 cell line
Procedure: NCI-H358 cells in exponential growth phase were digested with trypsin-EDTA, plated in a 96-well plate with 2000-3000 cells per well, and incubated overnight at 37° C. with 5% CO2. […] After the incubation, CellTiter-Glo test reagent with an equal volume was added into each well and the obtained 96-well plate was incubated after shaking. The chemiluminescence values were determined by microplate reader, and the IC50 values of the test compounds inhibiting the proliferation of NCI-H358 cells were fitted and calculated by GraphPad Prism software.
The test method of inhibitory activity was the same as that in Test 3 in “Biological Tests” part.

[1] = biological target: T1, human-derived MDR1 (MDR1 coding P-gp) transporter protein (Homo sapiens, UniProt P08183); conditions: from N Engl J Med 2020;383:1207-1217 supporting information; cited from earlier work
T1 construct: expressed in transfected cells; host or cells: membrane vesicles expressing human MDR1
T1 sequence (P08183 whole entry): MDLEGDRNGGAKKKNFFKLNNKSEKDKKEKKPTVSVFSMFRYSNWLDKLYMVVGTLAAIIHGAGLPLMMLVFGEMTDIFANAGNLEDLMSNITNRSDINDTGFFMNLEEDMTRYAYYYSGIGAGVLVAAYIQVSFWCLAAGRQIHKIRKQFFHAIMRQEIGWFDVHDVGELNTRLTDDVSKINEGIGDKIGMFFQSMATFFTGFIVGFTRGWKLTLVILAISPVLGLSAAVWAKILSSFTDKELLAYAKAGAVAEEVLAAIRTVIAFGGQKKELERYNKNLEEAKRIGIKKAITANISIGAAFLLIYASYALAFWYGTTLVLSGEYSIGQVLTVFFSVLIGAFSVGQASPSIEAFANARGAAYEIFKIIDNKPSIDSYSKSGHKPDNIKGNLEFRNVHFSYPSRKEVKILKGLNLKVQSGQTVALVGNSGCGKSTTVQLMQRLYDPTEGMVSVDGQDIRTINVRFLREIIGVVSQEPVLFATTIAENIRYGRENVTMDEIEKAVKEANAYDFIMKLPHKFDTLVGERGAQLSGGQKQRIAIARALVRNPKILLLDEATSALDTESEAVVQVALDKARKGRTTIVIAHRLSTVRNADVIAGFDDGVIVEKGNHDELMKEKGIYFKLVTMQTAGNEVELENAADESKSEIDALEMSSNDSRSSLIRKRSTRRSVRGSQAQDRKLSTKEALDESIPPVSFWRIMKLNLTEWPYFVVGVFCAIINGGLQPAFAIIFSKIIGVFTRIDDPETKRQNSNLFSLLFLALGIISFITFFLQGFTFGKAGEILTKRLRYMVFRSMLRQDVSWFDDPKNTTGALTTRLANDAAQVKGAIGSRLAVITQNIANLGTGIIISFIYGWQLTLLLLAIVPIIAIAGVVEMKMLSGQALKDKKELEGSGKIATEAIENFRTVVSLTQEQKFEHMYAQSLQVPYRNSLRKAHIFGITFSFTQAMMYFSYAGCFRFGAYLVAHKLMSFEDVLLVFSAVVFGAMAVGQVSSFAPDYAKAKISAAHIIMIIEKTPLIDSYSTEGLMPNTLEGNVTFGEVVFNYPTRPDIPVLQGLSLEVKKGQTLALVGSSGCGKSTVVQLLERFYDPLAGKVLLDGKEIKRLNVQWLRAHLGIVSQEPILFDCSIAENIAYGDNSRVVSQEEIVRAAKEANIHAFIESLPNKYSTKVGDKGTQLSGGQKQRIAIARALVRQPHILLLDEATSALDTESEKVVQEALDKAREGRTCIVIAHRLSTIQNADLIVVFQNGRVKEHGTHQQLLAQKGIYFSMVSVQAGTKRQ

[2] = test system: Chinese hamster lung fibroblasts (CHL cells); conditions: from N Engl J Med 2020;383:1207-1217 supporting information; cited from earlier work
MIA PaCa-2 cells = assay: Cell proliferation activity of MIA PaCa-2 by CellTiter-Glo reagent; assay type: cell-based; conditions: 72 h, CellTiter-Glo
Procedure: MIA PaCa-2 cells in exponential growth phase were digested with trypsin-EDTA, plated in a 96-well plate with 2000-3000 cells per well, and incubated overnight at 37° C. with 5% CO2. Mother solutions were prepared from the test compounds by using DMSO, subjected to gradient elution with DMEM growth medium, and then added into the 96-well plate and incubated in an incubator for 72 h at 37° C. with 5% CO2. After the incubation, CellTiter-Glo test reagent with an equal volume was added into each well and the obtained 96-well plate was incubated after shaking. The chemiluminescence values were determined by microplate reader, and the IC50 values of the test compounds inhibiting the proliferation of MIA PaCa-2 cells were fitted and calculated by GraphPad Prism software.
The test method of inhibitory activity was the same as that in Test 2 in “Biological Tests” part.

[3] = test system: MIA PaCa-2-derived xenograft tumor; assay: Pharmacodynamics test of MIA PaCa-2-derived xenograft tumor model in nude mice (test 6); assay type: in vivo
Procedure: Animal species and number: Balb/c Nude; 6 animals per group.
Test samples: Compound 3-2, Compound 3-6, Compound 3-20, Compound 3-12M.
Test groups: blank solvent control group; Compound 3-2 (10 mg/kg, QD×15 days), Compound 3-6 (10 mg/kg, QD×15 days), Compound 3-20 (10 mg/kg, QD×15 days), Compound 3-12M (10 mg/kg, QD×15 days).
Animal model establishment: MIA paca-2 tumor cells in logarithmic growth phase were cultured in vitro and collected, and inoculated subcutaneously into the right back of nude mice at a quantity of 5×10^6 cells/each. When the tumor volume reached 150-300 mm^3, the tumor-bearing nude mice were randomly grouped. Subsequently, the animals in each group were administered, and the day of the first administration was defined as day 1 of the test.
Administration route and frequency: oral administration by gavage; once a day.
General state observation: observation time and frequency: once a day; observation indexes or contents: including but not limited to administration location, appearance and signs, general behavioral activities, mental status, death and other abnormal performance of the animals. The animals were euthanized at the end of the test.
Tumor volume calculation: V=½×long diameter×short diameter^2 (mm^3). Tumor growth inhibition rate TGI (%) is used to evaluate the tumor inhibition efficacy of the compounds. TGI (%)=[1−(mean tumor volume in treatment group at the end of administration−mean tumor volume in treatment group at the beginning of administration)/(mean tumor volume in control group at the end of administration−mean tumor volume in control group at the beginning of administration)]×100%.

[4] = Preliminary safety test, 5-day escalating oral dosing in Balb/c mice; assay type: in vivo
Procedure: Test samples: Compound 3-2, Compound 3-6, Compound 3-12M, Compound 3-20, and Compound 4-8.
Animal species and number: Balb/c; 6 animals per group (half male and half female).
(§1) Administration mode: oral administration by gavage.
Animal grouping and administration dose: vehicle blank group, Compound 3-2 group (200 mg/kg, 400 mg/kg, 800 mg/kg), Compound 3-6 group (200 mg/kg, 400 mg/kg, 800 mg/kg), Compound 3-12M group (200 mg/kg, 400 mg/kg, 800 mg/kg), Compound 3-20 group (200 mg/kg, 400 mg/kg, 800 mg/kg), Compound 4-8 group (200 mg/kg, 400 mg/kg, 800 mg/kg).
Administration frequency: once a day for 5 days.
(§2) General clinical observations were performed 2 times a day (once in the morning and once in the afternoon) during the test period. Death, morbidity, respiration, secretions, feces, and diet, drinking situation and so on were observed, and the changes in body weight of the mice during the administration period were recorded. The animals in each group were euthanized after the administration, and all animals were dissected and subjected to gross observation.

[5] = Safety test for repeated administration for 14 days in SD rats; assay type: in vivo; conditions: oral gavage once a day for 14 days, 50, 150, 400 mg/kg
Procedure: (§3) Test samples: Compound 3-2, and Compound 3-6.
(§4) Animal species and number: SD rat; 6 animals per group (half male and half female).
as §1
Animal grouping and administration dose: vehicle blank group, Compound 3-2 group (50 mg/kg, 150 mg/kg, 400 mg/kg), Compound 3-6 group (50 mg/kg, 150 mg/kg, 400 mg/kg).
Administration frequency: once a day for 14 days.
as §2, with “the rats” for “the mice”, “The contents of detailed clinical observation included but were not limited to behavioral activity, skin, coat, eyes, ears, nose, abdomen, external genitalia, anus, extremities, feet, and respiration. The” for “The”, “euthanized at” for “euthanized after”, “the end of administration period,” for “the administration,”

NCI-H358 = assay: Cell proliferation inhibitory activity on NCI-H358, 3D model test (agarose colony formation); assay type: cell-based
Procedure: 100 μl of agarose gel with a high concentration was spread in a 96-well plate as the bottom agarose gel layer. Agarose with a low concentration and growth medium containing cells were mixed and then spread on the bottom agar layer, cooled and solidified, then incubated overnight at 37° C. Mother solutions were prepared from the test compounds by using DMSO, and then subjected to gradient elution with RPMI 1640 growth medium. The solutions of test compounds with different concentrations after gradient elution were added to the 96-well plate comprising an upper layer of agar gel-cells. Solvent control well was set up and the plate was incubated in a CO2 incubator. The drug-containing medium was changed during the incubation period and the cell growth situation was observed. After the incubation, the cells were stained with NBT and the number of cell colony formation was counted, and the IC50 values of the compounds inhibiting cell proliferation were derived.

[6] = Acute toxicity test, single oral dose in SD rats; assay type: in vivo; conditions: rat, in vivo
Procedure: as §3, §4, §1
Animal grouping and administration dose: vehicle blank group, Compound 3-2 group (500 mg/kg, 1000 mg/kg, 2000 mg/kg), Compound 3-6 group (500 mg/kg, 1000 mg/kg, 2000 mg/kg).
Administration frequency: once.
Death, morbidity, respiration, secretions, feces, and diet, drinking situation and so on were observed, and the changes in body weight of the rats during the administration period were recorded. The contents of detailed clinical observation included but were not limited to behavioral activity, skin, coat, eyes, ears, nose, abdomen, external genitalia, anus, extremities, feet, and respiration. The animals in each group were euthanized at the end of observation period, and all animals were dissected and subjected to gross observation.

Compound	IC50 (NCI-H358 cells) [nM]	substrate for P-gp (in words) [1]	chromosome aberration effect test result (in words) [2]	anti-cell proliferation activity against KRAS G12C mutant type cells MIA PaCa-2 (in words) (MIA PaCa-2 cells)	IC50 (MIA PaCa-2 cells; Homo sapiens, MIA PaCa-2, read-out: IC50 value of cell proliferation inhibitory activity of the compound on MIA PaCa-2) [nM]	inhibition effect on the growth of subcutaneously transplanted tumors derived from pancreatic cancer MIA paca-2 cells in nude mice (in words) ([3]; 10 mg/kg QD×15 days)	Tumor inhibition rate (%) ([3]; MIA PaCa-2 xenograft, nude mice, 10 mg/kg oral gavage QD×15 days)	MTD at 5 days ([4]; both sexes, mouse, in vivo, oral gavage, 5 days, initially suggested, read-out: maximum tolerated dose) [mg/kg]	water and food intake, activity and body weight during the administration period (in words) ([4]; oral gavage once a day for 5 days, 200 to 800 mg/kg)	water and food intake, activity and body weight during the administration period (in words) [5]	anti-cell proliferation activity against KRAS G12C mutant type cells NCI-H358 (in words) (NCI-H358; 3D model test)	IC50 (NCI-H358; Homo sapiens, NCI-H358, 3D agarose colony formation, NBT staining) [nM]	MTD ([6]; both sexes, SD rats, single oral gavage, 500, 1000, 2000 mg/kg, read-out: maximum tolerated dose (MTD)) [mg/kg]	death or morbidity after single dose (in words) [6]
C=CC(=O)N1CCN(c2nc(=O)n(-c3c(C)ccnc3C(C)C)c3nc(-c4c(O)cccc4F)c(F)cc23)[C@@H](C)C1 [AMG510]	41	is a substrate	positive result											
C=CC(=O)N1CCN(c2nc(=O)n(-c3c(C)ccnc3C(C)C)c3nc(-c4c(F)cccc4C=C)c(Cl)cc23)[C@@H](C)C1 [Compound 3-6]	11			significant anti-cell proliferation activity	< 50	significant inhibition effect	+++ (“+++” represents a tumor inhibition rate of >80%)	> 800	no significant abnormality was showed	no significant abnormality was showed	significant anti-cell proliferation activity	< 50	≥ 2000	No animals in each group were dead or close to death
